Experimental findings from patent publication US20090318426A1, “USE OF FLUMAZENIL IN THE MANUFACTURE OF A MEDICAMENT FOR THE TREATMENT OF DEPRESSIVE DISORDERS” (priority 2006, published 2009) are described below.

The test system of data set [1] is patients presenting a depressive disorder. The data set is described as follows: SCL-90-R (Symptom Checklist 90 Revised) scale in patients treated with flumazenil. It counts as in vivo, human. Particulars: for SCL-90-R at the end: after third administration of flumazenil 2 mg/day, 0.2 mg every 3 minutes.
Method: (§1) Three patients presenting a depressive disorder were subjected to treatment.
(§2) Flumazenil was administered in doses of 0.2 mg every 3 minutes (up to a total of 2 mg/day). […] Before starting the first administration of flumazenil, a test consisting of the administration of a bolus of 0.1 mg of flumazenil was conducted to evaluate the reaction of the subject.
Data set [2] shares this test system. The data set is described as follows: Clinical observation of mood, attention and sleep after administration of flumazenil. Type of data set: in vivo, human. Particulars: for changes in mood: three patients.
Method: as §1, §2
The test system is the same in data set [3]. The following applies: in vivo.
Method: as §1
During the assessment prior to the admission, a thorough psychopathological and medical evaluation was conducted first thing in the morning (9:00 AM). The medical examination included an electrocardiogram and a complete blood analysis, in which the different cell series (red blood cells, white blood cells and platelets) and the biochemical profile (glucose, creatinine, urea, cholesterol and the fractions thereof, triglycerides, alkaline phosphatase, GOT, GPT, GGT, LDH, total proteins, etc.) were studied.
Flumazenil was administered in doses of 0.2 mg every 3 minutes (up to a total of 2 mg/day). This quantity per dose was established to reduce as much as possible undesirable side effects related to possible interactions with other drugs or psychopathologies. Before starting the first administration of flumazenil, a test consisting of the administration of a bolus of 0.1 mg of flumazenil was conducted to evaluate the reaction of the subject.

As to `CCOC(=O)c1ncn2c1CN(C)C(=O)c1cc(F)ccc1-2` [Flumazenil, 8-fluoro-5,6-dihydro-5-methyl-6-oxo-4H-imidazol[1,5-α][1,4]benzodiazepine-3-carboxylic acid ethyl ester], the SCL-90-R depression values result in data set [1] (after third administration, versus start) is reported as “reduction in the depression values”. The “SCL-90-R at the end” value in data set [1] (patient P01 (associated cocaine consumption), SCL-90-R at the start 78) stood at 0. Further, the “SCL-90-R at the end” value in data set [1] (patient P02 (associated cocaine consumption), SCL-90-R at the start 48) was 30. Moreover, the “SCL-90-R at the end” value in data set [1] (patient P03 (associated alcohol consumption), SCL-90-R at the start 92) turned out to be 25. Also, the “mood of the treated patients” value in data set [2] (2 mg/day divided into doses of 0.2 mg every 3 minutes) is recorded as “substantially improves the mood”. Further, in data set [2] (after third administration), the “attention, concentration and other superior faculties” value was “improvement of attention, concentration and other superior faculties being more evident”; the existing sleep disorders result is given as “completely corrected”. Moreover, in data set [2] (patient P01, first night after first administration), the “sleep (early waking)” value is listed as “did not occur on this first night”. In addition, the “sleep (difficulty in falling asleep)” value in data set [2] (patient P03, first night after first administration) is listed as “fell asleep early in the night”. In addition, the changes in mood entry in data set [2] (after first administration, with respect to time of admission) is “feeling of wellbeing and more calmness”. For the same compound, the changes in mood entry in data set [2] (after second administration) was “better mood”. Also, the “time until induced improvement reaches a clinical level” value in data set [2] (treatment of depressive disorders) is on record as “less than one week”. Moreover, in data set [3], the blood pressure values result is “remained within the range of normal”; the cardiovascular values entry is “remained within normal parameters”; the “cardiovascular values (heart rate and blood pressure)” value is “did not undergo significant changes”; the heart rate values result is listed as “did not undergo any significant increases”. Moreover, in data set [3], the secondary symptoms entry is “Secondary symptoms did not occur” and the “symptoms associated to administration” value is “no symptoms associated to such administration”.
